Measured values published in US20250320213A1, “Nitrogen-Containing Heterocyclic Compounds” (Pfizer Inc., priority 2024, published 2025).

Molecular target: T1, STAT6 (Homo sapiens, UniProt P42226)
T1 construct: stably transfected HaCaT keratinocyte cell line, which expresses NanoLuc luciferase reporter gene under the transcriptional control of the STAT6 responsive promoter; endogenous in cells; host or cells: HaCaT keratinocyte reporter cell line (stably transfected with a NanoLuc reporter)
T1 sequence (P42226 1-847): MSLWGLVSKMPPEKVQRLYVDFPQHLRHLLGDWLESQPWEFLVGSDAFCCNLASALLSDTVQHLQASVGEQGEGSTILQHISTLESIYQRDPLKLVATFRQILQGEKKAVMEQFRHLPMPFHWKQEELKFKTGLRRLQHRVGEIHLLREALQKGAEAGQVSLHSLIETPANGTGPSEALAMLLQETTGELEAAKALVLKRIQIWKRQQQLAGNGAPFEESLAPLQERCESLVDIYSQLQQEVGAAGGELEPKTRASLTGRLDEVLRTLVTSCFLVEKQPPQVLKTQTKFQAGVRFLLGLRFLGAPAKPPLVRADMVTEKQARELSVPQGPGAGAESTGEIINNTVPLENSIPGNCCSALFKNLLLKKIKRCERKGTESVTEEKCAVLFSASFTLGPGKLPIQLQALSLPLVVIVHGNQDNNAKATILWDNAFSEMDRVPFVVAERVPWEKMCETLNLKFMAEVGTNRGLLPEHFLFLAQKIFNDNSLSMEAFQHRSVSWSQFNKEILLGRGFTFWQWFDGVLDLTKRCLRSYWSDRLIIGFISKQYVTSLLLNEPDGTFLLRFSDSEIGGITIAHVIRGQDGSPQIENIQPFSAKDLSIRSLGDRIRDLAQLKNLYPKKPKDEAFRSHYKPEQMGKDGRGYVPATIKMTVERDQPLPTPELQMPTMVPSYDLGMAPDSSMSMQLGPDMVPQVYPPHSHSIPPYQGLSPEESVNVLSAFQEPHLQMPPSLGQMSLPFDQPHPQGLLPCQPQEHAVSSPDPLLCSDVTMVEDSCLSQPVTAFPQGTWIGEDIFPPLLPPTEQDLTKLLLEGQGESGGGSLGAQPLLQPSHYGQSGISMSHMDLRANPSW
Assay: STAT6 Reporter Luciferase Assay (IL-13 stimulated HaCaT keratinocyte NanoLuc reporter cells)
Assay type: cell-based
Conditions: IL-13 stimulated HaCaT STAT6 NanoLuc reporter cells; read-out: Reporter EC50
Method in brief: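 Compounds were tested as 11-point, 4-fold series in duplicate, applied for 2 h at 37 °C in low-serum (2% FBS) DMEM. The cells were a stable HaCaT line with NanoLuc under a STAT6-responsive IL-13Ra2 promoter. After 4 h with 0.12 nM IL-13, Nano-Glo luminescence was measured.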

SMILES	EC50 [nM]
CC(C)n1nc(C(=O)NCc2ccc(NC(=O)N3CCC[C@H](N(C)C)C3)c(F)c2)c2c1[C@@H](C)CN(c1ccc(C(=O)N(C)C)cc1)C2 [Example 683, (S)-N-(4-((S)-3-(dimethylamino)piperidine-1-carboxamido)-3-fluorobenzyl)-5-(4-(dimethylcarbamoyl)phenyl)-1-isopropyl-7-methyl-4,5,6,7-tetrahydro-1H-pyrazolo[4,3-c]pyridine-3-carboxamide]	3
CC(C)n1nc(C(=O)NCc2ccc(NC(=O)N(C)C)cc2)c2c1CCN(c1ccc(C(=O)N3CC(C#N)C3)cn1)C2 [Example 210, 5-(5-(3-cyanoazetidine-1-carbonyl)pyridin-2-yl)-N-(4-(3,3-dimethylureido)benzyl)-1-isopropyl-4,5,6,7-tetrahydro-1H-pyrazolo[4,3-c]pyridine-3-carboxamide]	1060
Cc1nn(C)c2c1CN(C(=O)c1ccc(N3CCc4c(c(C(=O)NCc5ccc(NC(=O)N(C)C)cc5)nn4C(C)C)C3)nc1)CC2 [Example 369, 5-(5-(1,3-dimethyl-4,5,6,7-tetrahydro-1H-pyrazolo[4,3-c]pyridine-5-carbonyl)pyridin-2-yl)-N-(4-(3,3-dimethylureido)benzyl)-1-isopropyl-4,5,6,7-tetrahydro-1H-pyrazolo[4,3-c]pyridine-3-carboxamide]	38
CC(C)n1nc(C(=O)NCc2ccc(NC(=O)N(C)C)cc2)c2c1CCN(c1ccc(C(=O)N3CC4(CC(=O)N(C)C4)C3)cn1)C2 [Example 300, N-(4-(3,3-dimethylureido)benzyl)-1-isopropyl-5-(5-(6-methyl-7-oxo-2,6-diazaspiro[3.4]octane-2-carbonyl)pyridin-2-yl)-4,5,6,7-tetrahydro-1H-pyrazolo[4,3-c]pyridine-3-carboxamide]	1420
CC(C)n1nc(C(=O)NCc2ccc(NC(=O)N(C)C)cc2)c2c1CCN(c1ccc(C(=O)N3CCC4(COC4)C3)cn1)C2 [Example 228, 5-(5-(2-oxa-6-azaspiro[3.4]octane-6-carbonyl)pyridin-2-yl)-N-(4-(3,3-dimethylureido)benzyl)-1-isopropyl-4,5,6,7-tetrahydro-1H-pyrazolo[4,3-c]pyridine-3-carboxamide]	116
CC(C)n1nc(C(=O)NCc2ccc(NC(=O)N3CCC4(CC3)CN(C)C4)c(F)c2)c2c1[C@@H](C)CN(c1ccc(C(=O)N(C)C)cc1)C2 [Example 647, (S)-5-(4-(dimethylcarbamoyl)phenyl)-N-(3-fluoro-4-(2-methyl-2,7-diazaspiro[3.5]nonane-7-carboxamido)benzyl)-1-isopropyl-7-methyl-4,5,6,7-tetrahydro-1H-pyrazolo[4,3-c]pyridine-3-carboxamide]	1
CC(C)n1nc(C(=O)NCc2ccc(NC(=O)N(C)C)cc2)c2c1CCN(c1ccc(C(=O)N3CCc4ccc(C#N)cc4C3)cn1)C2 [Example 422, 5-(5-(7-cyano-1,2,3,4-tetrahydroisoquinoline-2-carbonyl)pyridin-2-yl)-N-(4-(3,3-dimethylureido)benzyl)-1-isopropyl-4,5,6,7-tetrahydro-1H-pyrazolo[4,3-c]pyridine-3-carboxamide]	19
CC(C)n1nc(C(=O)NCc2ccc(NC(=O)N3CCC4(CCCN(C)C4)CC3)cc2)c2c1[C@@H](C)CN(c1ccc(C(=O)N(C)C)cc1)C2 [Example 757, (S)-N-(4-((5-(4-(dimethylcarbamoyl)phenyl)-1-isopropyl-7-methyl-4,5,6,7-tetrahydro-1H-pyrazolo[4,3-c]pyridine-3-carboxamido)methyl)phenyl)-2-methyl-2,9-diazaspiro[5.5]undecane-9-carboxamide]	0.3
CC(C)n1nc(C(=O)NCc2ccc(NC(=O)N3CCN(C)[C@@H](C)C3)cc2)c2c1[C@@H](C)CN(c1ccc(C(=O)N(C)C)cc1)C2 [Example 735, (S)-5-(4-(dimethylcarbamoyl)phenyl)-N-(4-((S)-3,4-dimethylpiperazine-1-carboxamido)benzyl)-1-isopropyl-7-methyl-4,5,6,7-tetrahydro-1H-pyrazolo[4,3-c]pyridine-3-carboxamide]	1
CNC(=O)C1CCCN1C(=O)c1ccc(N2CCc3c(c(C(=O)NCc4ccc(NC(=O)N(C)C)cc4)nn3C(C)C)C2)nc1 (racemic) [Example 245, rac-(R)-N-(4-(3,3-dimethylureido)benzyl)-1-isopropyl-5-(5-(2-(methylcarbamoyl)pyrrolidine-1-carbonyl)pyridin-2-yl)-4,5,6,7-tetrahydro-1H-pyrazolo[4,3-c]pyridine-3-carboxamide]	2090
CC(C)n1nc(C(=O)NCc2ccc(NC(=O)N3CCN(C)CC3)cc2)c2c1C(C(F)(F)F)CN(c1ccc(C(=O)N(C)C)cc1)C2 (single isomer, unassigned) [Example 705, rel-(R or S)-5-(4-(dimethylcarbamoyl)phenyl)-1-isopropyl-N-(4-(4-methylpiperazine-1-carboxamido)benzyl)-7-(trifluoromethyl)-4,5,6,7-tetrahydro-1H-pyrazolo[4,3-c]pyridine-3-carboxamide]	0.2
CNC(=O)[C@@H]1CCCN1C(=O)c1ccc(N2CCc3c(c(C(=O)NCc4ccc(NC(=O)N(C)C)cc4)nn3C(C)C)C2)nc1 [Example 222, (S)-N-(4-(3,3-dimethylureido)benzyl)-1-isopropyl-5-(5-(2-(methylcarbamoyl)pyrrolidine-1-carbonyl)pyridin-2-yl)-4,5,6,7-tetrahydro-1H-pyrazolo[4,3-c]pyridine-3-carboxamide]	1480
Cc1nnn2c1CN(C(=O)c1ccc(N3CCc4c(c(C(=O)NCc5ccc(NC(=O)N(C)C)cc5)nn4C(C)C)C3)nc1)CC2 [Example 455, N-(4-(3,3-dimethylureido)benzyl)-1-isopropyl-5-(5-(3-methyl-4,5,6,7-tetrahydro-[1,2,3]triazolo[1,5-a]pyrazine-5-carbonyl)pyridin-2-yl)-4,5,6,7-tetrahydro-1H-pyrazolo[4,3-c]pyridine-3-carboxamide]	311
COCCC1(N)CCN(C(=O)Nc2ccc(CNC(=O)c3nn(C(C)C)c4c3CN(c3ccc(C(=O)N(C)C)cc3)C[C@@H]4C)cc2)C1 (single isomer, unassigned) [Example 670, (S)-N-(4-((R*)-3-amino-3-(2-methoxyethyl)pyrrolidine-1-carboxamido)benzyl)-5-(4-(dimethylcarbamoyl)phenyl)-1-isopropyl-7-methyl-4,5,6,7-tetrahydro-1H-pyrazolo[4,3-c]pyridine-3-carboxamide]	1
Cc1cc2c(cn1)CN(C(=O)c1ccc(N3CCc4c(c(C(=O)NCc5ccc(NC(=O)N(C)C)cc5)nn4C(C)C)C3)nc1)C2 [Example 440, N-(4-(3,3-dimethylureido)benzyl)-1-isopropyl-5-(5-(6-methyl-2,3-dihydro-1H-pyrrolo[3,4-c]pyridine-2-carbonyl)pyridin-2-yl)-4,5,6,7-tetrahydro-1H-pyrazolo[4,3-c]pyridine-3-carboxamide]	16
CC(C)n1nc(C(=O)NCc2ccc(NC(=O)N3CC[C@@H](CN(C)C)C3)cc2)c2c1[C@@H](C)CN(c1ccc(C(=O)N(C)C)cc1)C2 [Example 736, (S)-N-(4-((S)-3-((dimethylamino)methyl)pyrrolidine-1-carboxamido)benzyl)-5-(4-(dimethylcarbamoyl)phenyl)-1-isopropyl-7-methyl-4,5,6,7-tetrahydro-1H-pyrazolo[4,3-c]pyridine-3-carboxamide]	1
CC(C)n1nc(C(=O)NCc2ccc(NC(=O)N(C)C)cc2)c2c1CCN(c1ccc(C(=O)N3CC4(CCC(=O)N4)C3)cn1)C2 [Example 298, N-(4-(3,3-dimethylureido)benzyl)-1-isopropyl-5-(5-(6-oxo-2,5-diazaspiro[3.4]octane-2-carbonyl)pyridin-2-yl)-4,5,6,7-tetrahydro-1H-pyrazolo[4,3-c]pyridine-3-carboxamide]	2540
CC(C)n1nc(C(=O)NCc2ccc(NC(=O)N3CCN(C)CC3)cc2)c2c1C(C(F)(F)F)CN(c1ccc(C(=O)N(C)C)cn1)C2 (racemic) [Example 701, rac-(R)-5-(5-(dimethylcarbamoyl)pyridin-2-yl)-1-isopropyl-N-(4-(4-methylpiperazine-1-carboxamido)benzyl)-7-(trifluoromethyl)-4,5,6,7-tetrahydro-1H-pyrazolo[4,3-c]pyridine-3-carboxamide]	0.4
